In experiment [1] the test system is Right cardiac atrium. Briefly: Negative ionotropic activity in electrically-paced Cavia porcellus (guinea pig) right atrium measured after 60 min by isometric transducer analysis in presence of naloxane. Type of experiment: functional, tissue-based.
For experiment [2], the target named is T1, Muscarinic acetylcholine receptor M1 (Homo sapiens) (UniProt P11229).
T1 sequence (whole entry): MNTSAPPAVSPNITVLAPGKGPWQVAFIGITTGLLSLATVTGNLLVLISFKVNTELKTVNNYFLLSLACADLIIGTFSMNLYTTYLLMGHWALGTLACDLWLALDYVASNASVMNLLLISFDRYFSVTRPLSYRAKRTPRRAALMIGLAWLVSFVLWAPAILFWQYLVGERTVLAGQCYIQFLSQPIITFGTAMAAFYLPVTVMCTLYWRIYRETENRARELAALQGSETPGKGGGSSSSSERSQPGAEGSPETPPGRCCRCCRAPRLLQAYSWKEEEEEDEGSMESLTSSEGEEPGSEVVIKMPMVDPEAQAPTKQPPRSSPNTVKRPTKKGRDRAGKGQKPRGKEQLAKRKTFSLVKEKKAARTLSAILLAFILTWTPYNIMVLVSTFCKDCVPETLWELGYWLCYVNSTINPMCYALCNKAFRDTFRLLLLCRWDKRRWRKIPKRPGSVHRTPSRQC
The experiment in a line: Allosteric modulation of Homo sapiens (human) recombinant muscarinic M1 receptor expressed in CHO cells assessed as inhibition of carbachol-induced [35S]GTPgammaS binding. Type of experiment: functional, cell-based.

The test system of experiment [3] is Right cardiac atrium. Briefly: Negative ionotropic activity in electrically-paced Cavia porcellus (guinea pig) right atrium measured after 60 min by isometric transducer analysis in presence of 4-DAMP mustard. Type of experiment: functional, tissue-based.
In experiment [4] the test system is Left cardiac atrium. The experiment in a line: Negative ionotropic activity in electrically-paced Cavia porcellus (guinea pig) left atrium measured after 60 min by isometric transducer analysis in presence of benextramine/4-DAMP mustard. Type of experiment: functional, tissue-based. As to conditions: 1 h.
Experiment [5] deals with Right cardiac atrium. Briefly: Negative ionotropic activity in electrically-paced Cavia porcellus (guinea pig) right atrium measured after 60 min by isometric transducer analysis in presence of AM 251. It counts as functional, tissue-based.
The subject of experiment [6] is Right cardiac atrium. Briefly: Negative […] activity in electrically-paced Cavia porcellus (guinea pig) right atrium assessed as effect on force measured after 60 min by isometric transducer analysis in presence of benextramine/4-DAMP mustard. It counts as functional, tissue-based. As to conditions: 1 h.
For experiment [7], the target named is Muscarinic acetylcholine receptor M3 (Homo sapiens) (UniProt P20309). Briefly: Binding affinity to Homo sapiens (human) recombinant muscarinic M3 receptor expressed in CHO cells assessed as [35S]GTPgammaS binding. Type of experiment: functional, cell-based. (GTPγS resists hydrolysis and so accumulates on activated G proteins.)
Experiment [8] has as its system Right cardiac atrium. The experiment in a line: Negative ionotropic activity in electrically-paced Cavia porcellus (guinea pig) right atrium measured after 60 min by isometric transducer analysis in presence of benextramine. It counts as functional, tissue-based.
In experiment [9] the test system is Right cardiac atrium. The experiment in a line: Negative ionotropic activity in electrically-paced Cavia porcellus (guinea pig) right atrium measured after 60 min by isometric transducer analysis in presence of dihydroergocristine. Type of experiment: functional, tissue-based.
Experiment [10] has as its system Right cardiac atrium. Briefly: Negative […] activity in electrically-paced Cavia porcellus (guinea pig) right atrium measured after 60 min by isometric transducer analysis in presence of thioperamide. It counts as functional, tissue-based.
Experiment [11] concerns Left cardiac atrium. The experiment in a line: Negative ionotropic activity in electrically-paced Cavia porcellus (guinea pig) left atrium measured after 60 min by isometric transducer analysis in absence of benextramine/4-DAMP mustard. It counts as functional, tissue-based. As to conditions: 1 h.
For experiment [12], the system named is Left cardiac atrium. Briefly: Negative ionotropic activity in electrically-paced Cavia porcellus (guinea pig) left atrium measured after 60 min by isometric transducer analysis in presence of benzalkonium. Type of experiment: functional, tissue-based.
The subject of experiment [13] is Right cardiac atrium. Briefly: Negative ionotropic activity in electrically-paced Cavia porcellus (guinea pig) right atrium measured after 60 min by isometric transducer analysis in presence of bupranolol. Type of experiment: functional, tissue-based.
Experiment [14] relates to Left cardiac atrium. The experiment in a line: Reversible negative ionotropic activity in electrically-paced Cavia porcellus (guinea pig) left atrium incubated for 30 min followed by compound-washout measured after 3 hr by isometric transducer analysis. It counts as functional, tissue-based.
For experiment [15], the system named is Right cardiac atrium. The experiment in a line: Negative […] activity in electrically-paced Cavia porcellus (guinea pig) right atrium assessed as effect on force measured after 60 min by isometric transducer analysis in presence of benextramine/4-DAMP mustard relative to N-dodecyl lysine amide. Type of experiment: functional.
Experiment [16] deals with Left cardiac atrium. Briefly: Negative ionotropic activity in electrically-paced Cavia porcellus (guinea pig) left atrium measured after 60 min by isometric transducer analysis in presence of 4-DAMP mustard. It counts as functional, tissue-based.
For experiment [17], the target named is T2, Muscarinic acetylcholine receptor M2 (Homo sapiens) (UniProt P08172).
T2 sequence (whole entry): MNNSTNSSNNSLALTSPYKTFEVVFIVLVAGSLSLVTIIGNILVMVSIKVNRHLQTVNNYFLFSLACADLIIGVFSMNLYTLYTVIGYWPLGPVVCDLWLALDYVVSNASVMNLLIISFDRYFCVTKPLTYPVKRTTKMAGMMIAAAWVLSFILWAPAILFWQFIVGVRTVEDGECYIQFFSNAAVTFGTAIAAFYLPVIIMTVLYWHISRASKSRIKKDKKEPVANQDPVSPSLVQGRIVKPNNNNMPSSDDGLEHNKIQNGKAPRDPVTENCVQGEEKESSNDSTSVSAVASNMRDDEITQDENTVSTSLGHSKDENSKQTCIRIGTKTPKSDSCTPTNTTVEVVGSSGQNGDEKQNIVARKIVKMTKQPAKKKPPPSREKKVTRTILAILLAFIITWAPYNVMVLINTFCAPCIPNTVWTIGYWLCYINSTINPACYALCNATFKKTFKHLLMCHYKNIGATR
Briefly: Binding affinity to Homo sapiens (human) recombinant muscarinic M2 receptor expressed in CHO cells assessed as [35S]GTPgammaS binding. It counts as functional, cell-based.

Experiment [18] has as its target Muscarinic acetylcholine receptor M3 (Homo sapiens) (UniProt P20309). Briefly: Allosteric modulation of Homo sapiens (human) recombinant muscarinic M3 receptor expressed in CHO cells assessed as inhibition of carbachol-induced [35S]GTPgammaS binding. Type of experiment: functional, cell-based.
Experiment [19] has as its system Left cardiac atrium. The experiment in a line: Negative ionotropic activity in electrically-paced Cavia porcellus (guinea pig) left atrium measured after 60 min by isometric transducer analysis in presence of benextramine/4-DAMP mustard relative to N-dodecyl lysine amide. It counts as functional.
Experiment [20] has as its target T3, Muscarinic acetylcholine receptor M5 (Homo sapiens) (UniProt P08912).
T3 sequence (whole entry): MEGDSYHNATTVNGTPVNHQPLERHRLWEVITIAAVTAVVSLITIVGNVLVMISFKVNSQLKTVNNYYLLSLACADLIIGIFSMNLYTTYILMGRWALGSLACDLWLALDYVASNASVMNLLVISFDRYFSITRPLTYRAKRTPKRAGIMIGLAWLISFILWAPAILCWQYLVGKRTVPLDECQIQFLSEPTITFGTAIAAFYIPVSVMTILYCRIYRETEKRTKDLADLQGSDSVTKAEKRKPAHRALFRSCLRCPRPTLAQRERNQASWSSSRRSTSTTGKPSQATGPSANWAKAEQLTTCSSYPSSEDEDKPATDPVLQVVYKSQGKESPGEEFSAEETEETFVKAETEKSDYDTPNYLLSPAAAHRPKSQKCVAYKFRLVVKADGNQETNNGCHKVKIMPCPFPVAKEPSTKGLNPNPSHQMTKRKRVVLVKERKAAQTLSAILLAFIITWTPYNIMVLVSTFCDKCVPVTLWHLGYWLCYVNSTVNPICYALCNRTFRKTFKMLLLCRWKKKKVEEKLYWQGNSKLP
The experiment in a line: Allosteric modulation of Homo sapiens (human) recombinant muscarinic M5 receptor expressed in CHO cells assessed as inhibition of carbachol-induced [35S]GTPgammaS binding. It counts as functional, cell-based.

The target in experiment [21] is T2, Muscarinic acetylcholine receptor M2 (Homo sapiens). Briefly: Allosteric modulation of Homo sapiens (human) recombinant muscarinic M2 receptor expressed in CHO cells assessed as inhibition of N-[3H]methylscopalamine dissociation at 20 uM incubated at 1 hr post N-[3H]methylscopalamine addition measured after 5 min by filter binding assay. Type of experiment: cell-based.

SMILES strings stand for the structures. Activity calls are given as the source filed them. The calls are words filed in the database; no cut-off is given here.

The values below come from ChEMBL document CHEMBL3044753, “Polyamines May Modulate Both G Protein-Coupled Receptors and G Proteins” (Med Chem Res, 2004).

Sequence of Muscarinic acetylcholine receptor M3 (Homo sapiens) (P20309 whole entry, looked up): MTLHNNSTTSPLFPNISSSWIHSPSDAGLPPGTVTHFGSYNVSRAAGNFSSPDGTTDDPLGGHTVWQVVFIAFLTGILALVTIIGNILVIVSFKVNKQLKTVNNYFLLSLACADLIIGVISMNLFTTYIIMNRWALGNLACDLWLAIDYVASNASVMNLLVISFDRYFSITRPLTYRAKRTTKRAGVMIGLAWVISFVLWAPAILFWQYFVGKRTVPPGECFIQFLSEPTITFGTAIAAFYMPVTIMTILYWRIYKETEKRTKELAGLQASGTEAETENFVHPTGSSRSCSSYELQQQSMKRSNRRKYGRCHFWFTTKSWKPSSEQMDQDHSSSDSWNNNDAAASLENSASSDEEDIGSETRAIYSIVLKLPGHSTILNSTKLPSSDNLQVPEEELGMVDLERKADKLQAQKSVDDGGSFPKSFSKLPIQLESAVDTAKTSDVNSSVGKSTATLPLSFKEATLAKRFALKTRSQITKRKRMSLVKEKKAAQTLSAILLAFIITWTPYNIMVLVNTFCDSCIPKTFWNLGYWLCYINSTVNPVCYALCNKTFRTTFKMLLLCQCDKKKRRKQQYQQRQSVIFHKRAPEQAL

Usually EC50 stands for the midpoint of the concentration-response curve. In the case of `COc1ccccc1CN1CCC(C2CCN(CCCCCCCCN3CCC(C4CCN(Cc5ccccc5OC)CC4)CC3)CC2)CC1` [PIPERTRAMINE], the outcome in experiment [1], in experiment [2], in experiment [3], in experiment [5], in experiment [8] and in [9] was Active. The result in experiment [10], in [13], in [16], in experiment [18] and in experiment [20] was Active. Also, the concentration for a half-maximal effect (EC50) is 0.331 nM in experiment [4], 0.263 nM in experiment [6] and 0.2 nM in experiment [11]. For the same molecule, the result in experiment [7], in experiment [12], in [14] and in experiment [17] was inactive. Further, the values for the Efficacy in [15] and in [19] were 72% and 96%, respectively. Also, the inhibition entry in [21] is “Active”.
For the molecule `COc1ccccc1CN1CCC(C2CCN(C(=O)CCCCCCC(=O)N3CCC(C4CCN(Cc5ccccc5OC)CC4)CC3)CC2)CC1` [PIPERTRAMINE AMIDE], the result in [1], in [2], in experiment [3], in experiment [5], in experiment [8] and in [9] was Active. For the same molecule, the result in experiment [10], in experiment [13], in experiment [16], in experiment [18] and in experiment [20] was Active. Moreover, the EC50 is 0.589 nM in [4], 3.16 nM in experiment [6] and 3.09 nM in experiment [11]. In addition, the result in experiment [7], in experiment [12], in experiment [14] and in experiment [17] was inactive. Besides, the Efficacy in experiment [15] is given as 82%; in [19] it was 85%. The inhibition result in experiment [21] was “Active”.
